*1 amine or outer side, *2 acyl side, *3 side chain or, on linkers, in order; H or OH if unused. Where a SMILES comes first, the peptide text is derived from it. Bridges are numbered along the chain shown (N, C = ends). [ ]: non-standard residue; d: D form. ξ: configuration not given here. X2 = CN([C@@H](Cc1c[nH]c2cc(Cl)c(O)cc12)C(=O)[*:2])[*:1]; X1 = O=C([C@H](Cc1c[nH]c2cc(Cl)c(O)cc12)N[*:1])[*:2]; Ile(3ξ) = CCC(C)[C@H](N)C(=O)O; NMeL = CN[C@@H](CC(C)C)C(=O)O; CO = O=C([*:1])[*:2]
Biological target: T1, carboxypeptidase U (Homo sapiens, UniProt Q96IY4)
T1 sequence (Q96IY4 115-423): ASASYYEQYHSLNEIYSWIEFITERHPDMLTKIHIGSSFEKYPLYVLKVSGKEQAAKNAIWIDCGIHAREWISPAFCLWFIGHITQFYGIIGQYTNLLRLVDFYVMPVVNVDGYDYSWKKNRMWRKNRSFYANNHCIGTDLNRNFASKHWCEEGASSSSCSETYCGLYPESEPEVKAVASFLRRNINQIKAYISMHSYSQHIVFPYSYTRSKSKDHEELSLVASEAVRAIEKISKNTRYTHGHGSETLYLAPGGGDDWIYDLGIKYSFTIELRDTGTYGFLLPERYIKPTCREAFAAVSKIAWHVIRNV
Test: carboxypeptidase U inhibition assay (Hendriks et al., Clin. Chem. 1985), substrate concentration 4 mM
Type: biochemical
Settings: substrate concentration of 4 mM
Description: The inhibiting effect of the compounds of the present invention was estimated using the assay described in: Dirk Hendriks, Simon Scharpé and Marc van Sande, Clinical Chemistry, 31, 1936-1939 (1985); and Wei Wang, Dirk F. Hendriks, Simon S. Scharpé, The Journal of Biological Chemistry, 269, 15937-15944 (1994), using a substrate concentration of 4 mM.
The activities of certain Examples in the assay described in: Dirk Hendriks, Simon Sharpé and Marc van Sande, Clinical Chemistry, 31, 1936-1939 (1985), using a substrate concentration of 4 mM, are presented in Table I below.

CC(C)C[C@@H]1NC(=O)[C@H](C)NC(=O)[C@H](NC(=O)N[C@@H](CCCNC(=N)N)C(=O)O)CCCCNC(=O)[C@H](Cc2c[nH]c3cc(Cl)c(O)cc23)NC(=O)[C@H](CC(C)C)N(C)C1=O [Compound 2] ({Arg-CO}-[dK]AL[NMeL][X1]; lactam 1-C)
IC50: 0.1 µM

CCC(C)[C@H](NC(=O)N[C@@H]1CCCCNC(=O)[C@H](Cc2ccccc2)NC(=O)[C@H](Cc2c[nH]c3cc(Cl)c(O)cc23)N(C)C(=O)[C@H](CC(C)C)NC(=O)[C@H](C(C)CC)NC1=O)C(=O)O (some centres unmarked) [Compound 8] ({Ile(3ξ)-CO}-[dK][Ile(3ξ)]L[X2]F; lactam 1-C)
IC50: 2.5 µM

Source: US20080039376A1, “Use of Cyclic Anabaenopeptin-type Peptides for the Treatment of a Condition Wherein Inhibition of Carboxypeptidase U is Beneficial, Novel Anabaenopeptin Derivatives and Intermediates Thereof” (A[…], priority 2003, published 2008)
